Test results from patent US20190322676A1, “CERAMIDE GALACTOSYLTRANSFERASE INHIBITORS FOR THE TREATMENT OF DISEASE” (BioMarin Pharmaceutical Inc., priority 2016, published 2019).
Structures can show the parent of a compound that is named as a salt.

molecular target: T1, human CGT (ceramide galactosyltransferase), CHO/CGT lysate (Homo sapiens, UniProt Q16880); experiment: CGT enzyme assay, RapidFire/MS/MS readout with 0.01% Tween added (Table 1 ranges with two asterisks **); format: biochemical; settings: CGT enzymatic assay; range with two asterisks (**): RapidFire/MS/MS method with 0.01% Tween added
T1 construct: Full-length human CGT cDNA was cloned into the BamH1/Xho1 site of pcDNA3.1 (+); expressed in transfected cells; host or cells: Chinese hamster ovary (CHO) cells; lysate prepared with M-PER
T1 sequence (Q16880 21-541): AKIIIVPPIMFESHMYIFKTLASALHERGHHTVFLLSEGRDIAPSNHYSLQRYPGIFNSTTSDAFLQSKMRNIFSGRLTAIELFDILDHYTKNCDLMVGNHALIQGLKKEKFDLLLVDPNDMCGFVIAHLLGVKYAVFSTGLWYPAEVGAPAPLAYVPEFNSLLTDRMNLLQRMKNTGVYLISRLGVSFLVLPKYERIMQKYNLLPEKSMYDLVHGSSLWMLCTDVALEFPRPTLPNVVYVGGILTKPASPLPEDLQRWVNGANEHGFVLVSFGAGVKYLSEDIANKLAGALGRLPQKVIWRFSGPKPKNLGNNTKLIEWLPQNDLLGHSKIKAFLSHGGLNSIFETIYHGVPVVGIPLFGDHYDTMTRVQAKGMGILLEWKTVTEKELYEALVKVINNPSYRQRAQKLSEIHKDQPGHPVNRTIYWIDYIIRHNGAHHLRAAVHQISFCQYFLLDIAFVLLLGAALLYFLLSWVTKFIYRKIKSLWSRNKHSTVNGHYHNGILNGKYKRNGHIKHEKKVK
Method in brief: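 IC50s come from variable-slope dose-response fits of internal-standard-normalized C6-NBD-dihydro-galactosylceramide, measured by RapidFire/MS/MS (ESI negative). Reactions: 1 h, 37 °C, human CGT-expressing CHO lysate (4 μg), 0.001–50 μM compound, 10 μM NBD-dihydro-ceramide, 17.5 μM UDP-galactose, 0.5% DMSO, pH 7.2; 0.01% Tween 80 added for ** values.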

Row | SMILES | IC50
1 | NC1CCN(C(=O)[C@H](NS(=O)(=O)c2ccc(CCOC3CCCC3)cc2)C(F)(F)c2ccc(-c3ccc(Cl)cc3)cc2)CC1 [Compound 185-2, (S)-N-(3-(4-aminopiperidin-1-yl)-1-(4′-chloro-[1,1′-biphenyl]-4-yl)-1,1-difluoro-3-oxopropan-2-yl)-4-(2-(cyclopentyloxy)ethyl)benzenesulfonamide] | 30 to 100 µM
2 | N[C@H]1[C@@H]2CC[C@H]1CN(C(=O)[C@@H](NS(=O)(=O)c1ccc(OCC3CCCCC3)cc1)C(F)(F)c1ccc(-c3ccc(Cl)cc3)cc1)C2 [Compound 183-1, N-((R)-3-((1R,5S,8R)-8-amino-3-azabicyclo[3.2.1]octan-3-yl)-1-(4′-chloro-[1,1′-biphenyl]-4-yl)-1,1-difluoro-3-oxopropan-2-yl)-4-(cyclohexylmethoxy)benzenesulfonamide] | < 1 µM
3 | N[C@H]1CCN(C(=O)[C@@H](NS(=O)(=O)c2ccc(OCC3CCCCC3)cc2)C(F)(F)c2ccc(Cl)cc2)C1 [Compound 186-1, N-((R)-3-((S)-3-aminopyrrolidin-1-yl)-1-(4-chlorophenyl)-1,1-difluoro-3-oxopropan-2-yl)-4-(cyclohexylmethoxy)benzenesulfonamide] | 1 to 10 µM
4 | NC1CC2CCC(C1)N2C(=O)[C@H](NC(=O)C(=O)c1ccc2cc(OC3CCCC3)ccc2c1)C(F)(F)c1ccc2cc(Br)ccc2c1 (stereo partly drawn) [Compound 160-2, N-((2S)-3-(3-amino-8-azabicyclo[3.2.1]octan-8-yl)-1-(6-bromonaphthalen-2-yl)-1,1-difluoro-3-oxopropan-2-yl)-2-(6-(cyclopentyloxy)naphthalen-2-yl)-2-oxoacetamide trifluoroacetate] | 30 to 100 µM
5 | O=C([C@@H](NS(=O)(=O)c1ccc2cc(OC3CCCC3)ccc2c1)C(F)(F)c1ccc(-c2ccc(Cl)cc2)cc1)N1Cc2cn[nH]c2C1 [Compound 176-1, (R)—N-(1-(4′-chloro-[1,1′-biphenyl]-4-yl)-3-(4,6-dihydropyrrolo[3,4-c]pyrazol-5(1H)-yl)-1,1-difluoro-3-oxopropan-2-yl)-6-(cyclopentyloxy)naphthalene-2-sulfonamide] | < 1 µM
6 | NC1CC2CCC(C1)N2C(=O)[C@H](NC(=O)[C@@H](O)c1ccc(OCC2CCCCC2)cc1)C(F)(F)c1ccc(-c2ccc(Cl)cc2)cc1 (stereo partly drawn) [Compound 152-2, (2S)—N-((2S)-3-(3-amino-8-azabicyclo[3.2.1]octan-8-yl)-1-(4′-chloro-[1,1′-biphenyl]-4-yl)-1,1-difluoro-3-oxopropan-2-yl)-2-(4-(cyclohexylmethoxy)phenyl)-2-hydroxyacetamide trifluoroacetate] | 30 to 100 µM
7 | NC1CCN(C(=O)[C@H](NS(=O)(=O)c2ccc3cc(OC4CCCC4)ccc3c2)C(F)(F)c2ccc(C3(C(F)(F)F)CC3)cc2)CC1 [Compound 182-2, (S)—N-(3-(4-aminopiperidin-1-yl)-1,1-difluoro-3-oxo-1-(4-(1-(trifluoromethyl)cyclopropyl)phenyl)propan-2-yl)-6-(cyclopentyloxy) naphthalene-2-sulfonamide trifluoroacetate] | 10 to 30 µM
8 | NC1CCN(C(=O)[C@@H](NS(=O)(=O)c2ccc(OCC3CCCCC3)cc2)C(F)(F)c2ccc(-c3ccccc3)cc2)CC1 [Compound 156-1, (R)—N-(1-([1,1′-biphenyl]-4-yl)-3-(4-aminopiperidin-1-yl)-1,1-difluoro-3-oxopropan-2-yl)-4-(cyclohexylmethoxy)benzenesulfonamide trifluoroacetate] | 1 to 10 µM
9 | N[C@H]1[C@@H]2CC[C@H]1CN(C(=O)[C@@H](NS(=O)(=O)c1ccc3cc(OC4CCCC4)ccc3c1)C(F)(F)c1ccc(-c3ccc(Cl)cc3)cc1)C2 [Compound 184-1, N-((R)-3-((1R,5S,8R)-8-amino-3-azabicyclo[3.2.1]octan-3-yl)-1-(4′-chloro-[1,1′-biphenyl]-4-yl)-1,1-difluoro-3-oxopropan-2-yl)-6-(cyclopentyloxy)naphthalene-2-sulfonamide] | 1 to 10 µM

Second part, the compound after the results:

Row | IC50 | SMILES
10 | 30 to 100 µM | NC1CCN(C(=O)[C@H](NS(=O)(=O)c2ccc(OCC3CCCCC3)cc2)C(F)(F)c2ccc3c(c2)oc2cc(Cl)ccc23)CC1 [Compound 198-2, (S)-N-(3-(4-aminopiperidin-1-yl)-1-(7-chlorodibenzo[b,d]furan-3-yl)-1,1-difluoro-3-oxopropan-2-yl)-4-(cyclohexylmethoxy)benzenesulfonamide]
11 | 1 to 10 µM | N[C@@H]1CCN(C(=O)[C@@H](NS(=O)(=O)c2ccc(OCC3CCCCC3)cc2)C(F)(F)c2ccc(Cl)cc2)C1 [Compound 189-1, N-((R)-3-((R)-3-aminopyrrolidin-1-yl)-1-(4-chlorophenyl)-1,1-difluoro-3-oxopropan-2-yl)-4-(cyclohexylmethoxy)benzenesulfonamide]
12 | 1 to 10 µM | NC1CCN(C(=O)[C@@H](NS(=O)(=O)c2ccc(OCC3CCCCC3)cc2)C(F)(F)c2ccc3c(c2)oc2cc(Cl)ccc23)CC1 [Compound 198-1, (R)-N-(3-(4-aminopiperidin-1-yl)-1-(7-chlorodibenzo[b,d]furan-3-yl)-1,1-difluoro-3-oxopropan-2-yl)-4-(cyclohexylmethoxy)benzenesulfonamide]
13 | 1 to 10 µM | NC1CCN(C(=O)[C@H](NS(=O)(=O)c2cc3ccc(OC4CCCC4)cc3s2)C(F)(F)c2ccc(-c3ccc(Cl)cc3)cc2)CC1 [Compound 164-2, (S)—N-(3-(4-aminopiperidin-1-yl)-1-(4′-chloro-[1,1′-biphenyl]-4-yl)-1,1-difluoro-3-oxopropan-2-yl)-6-(cyclopentyloxy)benzo[b]thiophene-2-sulfonamide]
14 | 30 to 100 µM | CN(CCCN)C(=O)[C@H](NS(=O)(=O)c1ccc2cc(OC3CCCC3)ccc2c1)C(F)(F)c1ccc(-c2ccc(Cl)cc2)cc1 [Compound 157-2, (S)—N-(3-aminopropyl)-3-(4′-chloro-[1,1′-biphenyl]-4-yl)-2-((6-(cyclopentyloxy)naphthalene)-2-sulfonamido)-3,3-difluoro-N-methyl propanamide]
15 | 30 to 100 µM | O=C([C@H](NS(=O)(=O)c1ccc(OCC2CCCCC2)cc1)C(F)(F)c1ccc(-c2ccc(Cl)cc2)cc1)N1CCNCC1 [Compound 151-2, (S)—N-(1-(4′-chloro-[1,1′-biphenyl]-4-yl)-1,1-difluoro-3-oxo-3-(piperazin-1-yl)propan-2-yl)-4-(cyclohexylmethoxy) benzenesulfonamide trifluoroacetate]
16 | 10 to 30 µM | N[C@@H]1CCN(C(=O)[C@H](NS(=O)(=O)c2ccc(OCC3CCCCC3)cc2)C(F)(F)c2ccc(Cl)cc2)C1 [Compound 189-2, N-((S)-3-((R)-3-aminopyrrolidin-1-yl)-1-(4-chlorophenyl)-1,1-difluoro-3-oxopropan-2-yl)-4-(cyclohexylmethoxy)benzenesulfonamide]
17 | 30 to 100 µM | N[C@H]1CCN(C(=O)[C@H](NS(=O)(=O)c2ccc(OCC3CCCCC3)cc2)C(F)(F)c2ccc(Cl)cc2)C1 [Compound 186-2, N-((S)-3-((S)-3-aminopyrrolidin-1-yl)-1-(4-chlorophenyl)-1,1-difluoro-3-oxopropan-2-yl)-4-(cyclohexylmethoxy)benzenesulfonamide]
18 | 30 to 100 µM | COc1cc(C(F)(F)[C@@H](NS(=O)(=O)c2ccc(OCC3CCCCC3)cc2)C(=O)N2C[C@H]3CNC[C@H]3C2)ccc1-c1ccc(Cl)cc1 [Compound 190-2, N-((S)-1-(4′-chloro-2-methoxy-[1,1′-biphenyl]-4-yl)-1,1-difluoro-3-((3aR,6aS)-hexahydropyrrolo[3,4-c]pyrrol-2(1H)-yl)-3-oxopropan-2-yl)-4-(cyclohexylmethoxy)benzenesulfonamide]
19 | 10 to 30 µM | O=C([C@H](NS(=O)(=O)c1ccc2cc(OC3CCCC3)ccc2c1)C(F)(F)c1ccc(-c2ccc(Cl)cc2)cc1)N1CC[C@@H]2CNC[C@@H]21 [Compound 192-2, N-((S)-1-(4′-chloro-[1,1′-biphenyl]-4-yl)-1,1-difluoro-3-((3aR,6aR)-hexahydropyrrolo[3,4-b]pyrrol-1(2H)-yl)-3-oxopropan-2-yl)-6-(cyclopentyloxy)naphthalene-2-sulfonamide]
20 | 10 to 30 µM | O=C([C@H](NS(=O)(=O)c1ccc2cc(OC3CCCC3)ccc2c1)C(F)(F)c1ccc(-c2ccc(Cl)cc2)cc1)N1C[C@H]2CNC[C@H]2C1 [Compound 147-2, N—((S)-1-(4′-chloro-[1,1′-biphenyl]-4-yl)-1,1-difluoro-3-((3aR,6aS)-hexahydropyrrolo[3,4-c]pyrrol-2(1H)-yl)-3-oxopropan-2-yl)-6-(cyclopentyloxy)naphthalene-2-sulfonamide trifluoroacetate]
21 | 1 to 10 µM | NC1CCN(C(=O)[C@@H](NC(=O)[C@H](O)c2ccc3cc(OC4CCCC4)ccc3c2)C(F)(F)c2ccc(-c3ccc(Cl)cc3)cc2)CC1 [Compound 159-1, (R)—N—((R)-3-(4-aminopiperidin-1-yl)-1-(4′-chloro-[1,1′-biphenyl]-4-yl)-1,1-difluoro-3-oxopropan-2-yl)-2-(6-(cyclopentyloxy)naphthalen-2-yl)-2-hydroxyacetamide trifluoroacetate]
